Calls of active or inactive are those of the source. The rule behind the calls is not given here.
Columns and labels:
[1] = molecular target: T1, Orexin/Hypocretin receptor type 1 (Homo sapiens, UniProt O43613); experiment: Antagonist activity against human orexin 1 receptor expressed in CHO cells assessed as effect in calcium mobilization by FLIPR assay; format: functional, cell-based
T1 sequence (O43613 whole entry): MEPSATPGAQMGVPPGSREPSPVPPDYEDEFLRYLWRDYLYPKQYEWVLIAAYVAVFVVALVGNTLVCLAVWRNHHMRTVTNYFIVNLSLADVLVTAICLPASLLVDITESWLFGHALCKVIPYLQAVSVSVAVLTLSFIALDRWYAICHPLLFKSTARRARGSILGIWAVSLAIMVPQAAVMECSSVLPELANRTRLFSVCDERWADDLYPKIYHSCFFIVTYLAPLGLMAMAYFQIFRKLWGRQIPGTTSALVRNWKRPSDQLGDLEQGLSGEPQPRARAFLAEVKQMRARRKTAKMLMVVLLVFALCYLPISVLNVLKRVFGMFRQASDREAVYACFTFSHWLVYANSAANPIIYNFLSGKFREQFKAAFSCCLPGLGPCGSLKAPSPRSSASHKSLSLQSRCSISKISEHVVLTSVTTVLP

Orexin receptor type 2 = molecular target: T2, Orexin receptor type 2 (Homo sapiens, UniProt O43614); experiment: Antagonist activity against human orexin 2 receptor expressed in CHO cells assessed as effect in calcium mobilization by FLIPR assay; format: functional, cell-based
T2 sequence (O43614 whole entry): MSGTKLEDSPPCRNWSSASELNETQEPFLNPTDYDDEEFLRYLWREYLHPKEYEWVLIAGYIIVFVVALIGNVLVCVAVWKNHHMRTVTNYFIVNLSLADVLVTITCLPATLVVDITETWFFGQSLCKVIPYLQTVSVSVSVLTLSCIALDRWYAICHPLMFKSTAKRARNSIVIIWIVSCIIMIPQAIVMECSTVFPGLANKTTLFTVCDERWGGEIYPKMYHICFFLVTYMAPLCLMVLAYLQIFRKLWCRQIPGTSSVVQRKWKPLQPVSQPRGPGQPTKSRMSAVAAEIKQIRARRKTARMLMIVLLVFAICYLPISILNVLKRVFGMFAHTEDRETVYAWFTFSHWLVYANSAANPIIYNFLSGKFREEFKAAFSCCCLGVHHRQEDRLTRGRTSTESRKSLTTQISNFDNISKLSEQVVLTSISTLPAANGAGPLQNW

Cytochrome P450 2D6 = Cytochrome P450 2D6 (Homo sapiens, UniProt P10635); experiment: Inhibition of CYP2D6 by CYPEX bactosome P450 inhibition assay; format: ADME
Cytochrome P450 3A4 [2] = molecular target: T3, Cytochrome P450 3A4 (Homo sapiens, UniProt P08684); experiment: Inhibition of CYP3A4 using DEF substrate by CYPEX bactosome P450 inhibition assay; format: ADME
[3] = molecular target: T4, Orexin receptor type 2 (Rattus norvegicus) (UniProt P56719); experiment: Antagonist activity against rat orexin 2 receptor expressed in RBL cells by [3H]inositol phosphate accumulation assay; format: functional, cell-based
T4 sequence (whole entry): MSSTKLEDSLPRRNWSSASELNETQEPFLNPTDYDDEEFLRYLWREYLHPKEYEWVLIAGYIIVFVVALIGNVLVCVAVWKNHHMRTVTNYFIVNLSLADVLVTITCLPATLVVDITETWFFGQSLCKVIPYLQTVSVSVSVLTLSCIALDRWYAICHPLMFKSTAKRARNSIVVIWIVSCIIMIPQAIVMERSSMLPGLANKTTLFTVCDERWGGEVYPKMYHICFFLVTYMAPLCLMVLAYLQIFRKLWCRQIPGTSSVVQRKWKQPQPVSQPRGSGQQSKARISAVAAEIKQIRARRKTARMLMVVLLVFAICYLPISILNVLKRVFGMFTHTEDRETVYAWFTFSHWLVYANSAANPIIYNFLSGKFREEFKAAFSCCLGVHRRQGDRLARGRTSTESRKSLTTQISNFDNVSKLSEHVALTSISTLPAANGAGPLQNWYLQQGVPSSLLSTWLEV

Cytochrome P450 1A2 = molecular target: T5, Cytochrome P450 1A2 (Homo sapiens, UniProt P05177); experiment: Inhibition of CYP1A2 by CYPEX bactosome P450 inhibition assay; format: ADME
T5 sequence (P05177 whole entry): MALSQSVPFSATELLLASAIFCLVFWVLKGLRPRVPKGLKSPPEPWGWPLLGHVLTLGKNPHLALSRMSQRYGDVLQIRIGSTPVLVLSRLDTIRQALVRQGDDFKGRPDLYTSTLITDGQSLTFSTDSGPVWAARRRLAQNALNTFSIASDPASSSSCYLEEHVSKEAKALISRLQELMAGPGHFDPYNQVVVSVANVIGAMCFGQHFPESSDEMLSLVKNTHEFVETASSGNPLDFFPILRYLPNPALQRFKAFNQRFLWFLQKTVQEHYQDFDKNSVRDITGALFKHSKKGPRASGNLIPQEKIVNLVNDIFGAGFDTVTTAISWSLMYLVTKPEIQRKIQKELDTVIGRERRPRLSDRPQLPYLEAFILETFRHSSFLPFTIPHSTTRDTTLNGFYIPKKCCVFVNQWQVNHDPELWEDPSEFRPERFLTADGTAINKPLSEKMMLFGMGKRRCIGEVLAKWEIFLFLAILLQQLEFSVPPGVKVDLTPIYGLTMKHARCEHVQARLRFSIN

Cytochrome P450 2C9 = Cytochrome P450 2C9 (Homo sapiens, UniProt P11712); experiment: Inhibition of CYP2C9 by CYPEX bactosome P450 inhibition assay; format: ADME
Cytochrome P450 3A4 [4] = molecular target: T3, Cytochrome P450 3A4; experiment: Inhibition of CYP3A4 by CYPEX bactosome P450 inhibition assay; format: ADME
Cytochrome P450 2C19 = Cytochrome P450 2C19 (Homo sapiens, UniProt P33261); experiment: Inhibition of CYP2C19 by CYPEX bactosome P450 inhibition assay; format: ADME
[5] = molecular target: T6, Orexin/Hypocretin receptor type 1 (Rattus norvegicus) (UniProt P56718); experiment: Antagonist activity against rat orexin 1 receptor expressed in RBL cells by [3H]inositol phosphate accumulation assay; format: functional, cell-based
T6 sequence (whole entry): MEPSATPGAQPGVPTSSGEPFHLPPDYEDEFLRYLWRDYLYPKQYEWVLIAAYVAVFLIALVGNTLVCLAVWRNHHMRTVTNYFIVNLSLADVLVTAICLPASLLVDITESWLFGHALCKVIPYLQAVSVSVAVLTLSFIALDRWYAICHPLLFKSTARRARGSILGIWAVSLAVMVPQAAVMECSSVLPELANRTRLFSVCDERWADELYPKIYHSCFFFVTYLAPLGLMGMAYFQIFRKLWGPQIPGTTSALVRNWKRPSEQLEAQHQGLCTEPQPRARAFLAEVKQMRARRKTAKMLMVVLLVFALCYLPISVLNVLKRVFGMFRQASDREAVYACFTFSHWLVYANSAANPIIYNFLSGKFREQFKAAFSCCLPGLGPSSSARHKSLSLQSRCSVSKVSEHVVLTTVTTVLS

T3 sequence (P08684 whole entry): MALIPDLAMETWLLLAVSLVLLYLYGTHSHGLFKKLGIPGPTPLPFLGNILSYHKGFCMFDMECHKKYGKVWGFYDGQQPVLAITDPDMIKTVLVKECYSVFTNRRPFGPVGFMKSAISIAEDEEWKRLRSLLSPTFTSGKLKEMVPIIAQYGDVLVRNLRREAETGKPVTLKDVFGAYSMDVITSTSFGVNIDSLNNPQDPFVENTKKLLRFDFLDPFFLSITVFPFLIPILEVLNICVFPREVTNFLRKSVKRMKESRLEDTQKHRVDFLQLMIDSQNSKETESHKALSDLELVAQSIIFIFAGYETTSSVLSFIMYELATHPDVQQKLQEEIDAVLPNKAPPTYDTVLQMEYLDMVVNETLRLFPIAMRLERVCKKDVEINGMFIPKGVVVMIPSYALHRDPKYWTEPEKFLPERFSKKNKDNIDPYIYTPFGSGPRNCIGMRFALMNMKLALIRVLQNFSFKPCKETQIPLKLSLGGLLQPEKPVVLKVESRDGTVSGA
Sequence of Cytochrome P450 2C19 (P33261 whole entry): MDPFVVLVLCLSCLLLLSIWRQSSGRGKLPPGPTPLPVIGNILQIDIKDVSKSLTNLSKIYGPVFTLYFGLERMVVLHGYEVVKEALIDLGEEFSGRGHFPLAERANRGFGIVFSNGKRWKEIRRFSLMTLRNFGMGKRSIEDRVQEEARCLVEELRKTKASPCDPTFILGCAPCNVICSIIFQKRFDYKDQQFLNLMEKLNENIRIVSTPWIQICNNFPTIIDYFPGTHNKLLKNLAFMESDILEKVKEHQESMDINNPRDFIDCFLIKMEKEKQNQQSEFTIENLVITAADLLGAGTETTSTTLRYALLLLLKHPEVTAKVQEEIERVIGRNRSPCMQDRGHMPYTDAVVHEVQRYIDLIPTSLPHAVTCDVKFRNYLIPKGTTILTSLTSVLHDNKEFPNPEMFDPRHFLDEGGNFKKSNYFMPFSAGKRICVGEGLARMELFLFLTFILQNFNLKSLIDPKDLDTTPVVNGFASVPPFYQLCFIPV
Sequence of Cytochrome P450 2C9 (P11712 whole entry): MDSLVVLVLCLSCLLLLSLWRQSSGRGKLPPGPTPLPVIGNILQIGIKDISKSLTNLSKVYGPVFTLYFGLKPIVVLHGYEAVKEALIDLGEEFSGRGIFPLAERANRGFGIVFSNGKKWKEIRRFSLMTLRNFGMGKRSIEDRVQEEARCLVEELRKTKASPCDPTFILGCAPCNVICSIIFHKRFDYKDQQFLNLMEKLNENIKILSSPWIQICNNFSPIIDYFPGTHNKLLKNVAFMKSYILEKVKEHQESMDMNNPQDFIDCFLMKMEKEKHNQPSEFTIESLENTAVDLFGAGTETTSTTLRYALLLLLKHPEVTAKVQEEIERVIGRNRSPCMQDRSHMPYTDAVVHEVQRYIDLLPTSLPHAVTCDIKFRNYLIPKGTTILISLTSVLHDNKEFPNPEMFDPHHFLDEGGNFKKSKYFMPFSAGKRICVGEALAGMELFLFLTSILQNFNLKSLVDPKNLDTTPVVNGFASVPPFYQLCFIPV
Sequence of Cytochrome P450 2D6 (P10635 whole entry): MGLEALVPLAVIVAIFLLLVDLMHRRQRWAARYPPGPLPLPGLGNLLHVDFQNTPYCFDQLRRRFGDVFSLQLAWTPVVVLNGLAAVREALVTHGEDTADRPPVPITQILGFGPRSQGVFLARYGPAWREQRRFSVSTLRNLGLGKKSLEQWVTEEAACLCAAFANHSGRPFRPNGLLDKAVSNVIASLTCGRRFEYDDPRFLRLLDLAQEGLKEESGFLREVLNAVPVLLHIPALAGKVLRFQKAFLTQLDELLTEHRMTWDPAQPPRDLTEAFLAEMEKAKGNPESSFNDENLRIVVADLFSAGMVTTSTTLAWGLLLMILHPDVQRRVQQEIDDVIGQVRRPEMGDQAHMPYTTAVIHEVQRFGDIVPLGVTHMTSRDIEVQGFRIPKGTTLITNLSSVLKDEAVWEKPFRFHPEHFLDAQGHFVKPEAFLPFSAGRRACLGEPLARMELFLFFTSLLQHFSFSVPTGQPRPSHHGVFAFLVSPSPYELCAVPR

Row | Structure (SMILES) | Ki [1] [nM] | Ki (Orexin receptor type 2) [nM] | other results
1 | Cc1ccc(C)c(NC(=O)CSc2nnc(-c3ccoc3C)n2Cc2ccco2)c1 | > 15800 | – | –
2 | Cc1occc1-c1nnc(SCC(=O)Nc2ccc(Cl)cc2)n1Cc1ccco1 | 2000 | 100 | –
3 | Cc1ccccc1NC(=O)CSc1nnc(-c2ccoc2C)n1Cc1ccco1 | > 15800 | > 15800 | –
4 | Cc1occc1-c1nnc(SCC(=O)Nc2cccc(Cl)c2)n1Cc1ccco1 | 2000 | 63.1 | –
5 | Cc1cc(C)cc(N(C(=O)CSc2nnc(-c3ccoc3C)n2Cc2ccco2)c2ccccn2)c1 | > 15800 | 398 | –
6 | Cc1csc(NC(=O)CSc2nnc(-c3ccoc3C)n2Cc2ccco2)n1 | > 15800 | 100 | –
7 | Cc1occc1-c1nnc(SCC(=O)Nc2cccc(-c3ccc4c(c3)OCO4)c2)n1Cc1ccco1 | > 15800 | 251 | –
8 | Cc1occc1-c1nnc(SCC(=O)NCCc2ccccc2)n1Cc1ccco1 | > 15800 | 1580 | –
9 | Cc1nnc(NC(=O)CSc2nnc(-c3ccoc3C)n2Cc2ccco2)s1 | > 15800 | 398 | –
10 | COc1ccc(C)cc1NC(=O)CSc1nnc(-c2ccoc2C)n1Cc1ccco1 | 2510 | 15.8 | –
11 | COc1ccccc1NC(=O)CSc1nnc(-c2ccoc2C)n1Cc1ccco1 | > 15800 | 501 | –
12 | CCC(C)NC(=O)CSc1nnc(-c2ccoc2C)n1Cc1ccco1 (stereo not given) | > 15800 | > 15800 | –
13 | Cc1cc(C)cc(NC(=O)CSc2nnc(-c3ccoc3C)n2Cc2ccco2)c1 | 794 | 1.58 | IC50 (Cytochrome P450 2D6): > 5000 nM; IC50 (Cytochrome P450 3A4 [2]): 2000 nM; inhibition [3]: Active; IC50 (Cytochrome P450 1A2): > 5000 nM; IC50 (Cytochrome P450 2C9): > 5000 nM; IC50 (Cytochrome P450 3A4 [4]): > 5000 nM; IC50 (Cytochrome P450 2C19): > 5000 nM; inhibition [5]: Active
14 | Cc1cccc(NC(=O)CSc2nnc(-c3ccoc3C)n2Cc2ccco2)c1 | 2510 | 50.1 | –
15 | CC(=O)c1cccc(NC(=O)CSc2nnc(-c3ccoc3C)n2Cc2ccco2)c1 | 3160 | 316 | –
16 | Cc1cccc(NC(=O)CSc2nnc(-c3ccoc3C)n2Cc2ccco2)c1C | > 15800 | > 15800 | –
17 | Cc1cccc(C)c1NC(=O)CSc1nnc(-c2ccoc2C)n1Cc1ccco1 | > 15800 | > 15800 | –

Row | Structure (SMILES) | Ki [1] [nM] | Ki (Orexin receptor type 2) [nM] | other results
18 | CC(=O)c1ccc(NC(=O)CSc2nnc(-c3ccoc3C)n2Cc2ccco2)cc1 | 2510 | 31.6 | –
19 | Cc1nc(C(=O)N2CCCC[C@H]2CNC(=O)c2cccc3occc23)c(-c2ccc(F)cc2)s1 [SB-649868] | 0.316 | 0.398 | –
20 | Cc1occc1-c1nnc(SCC(=O)Nc2ccc(F)c(Cl)c2)n1Cc1ccco1 | 1000 | 39.8 | –
21 | Cc1occc1-c1nnc(SCC(=O)Nc2cccc(F)c2)n1Cc1ccco1 | > 15800 | 501 | –
22 | Cc1occc1-c1nnc(SCC(=O)NN2CCc3ccccc32)n1Cc1ccco1 | > 15800 | 1000 | –
23 | Cc1ccc(NC(=O)CSc2nnc(-c3ccoc3C)n2Cc2ccco2)cc1 | > 15800 | 39.8 | –
24 | Cc1ccc(NC(=O)CSc2nnc(-c3ccoc3C)n2Cc2ccco2)cc1C | 631 | 2.51 | –
25 | Cc1ccc(NC(=O)CSc2nnc(-c3ccoc3C)n2Cc2ccco2)c(C)c1 | 1260 | 501 | –
26 | COc1ccc(NC(=O)CSc2nnc(-c3ccoc3C)n2Cc2ccco2)cc1 | > 15800 | 200 | –
27 | Cc1cc(C)cc(N(C(=O)CSc2nnc(-c3ccoc3C)n2Cc2ccco2)C2CNCCN2)c1 (stereo not given) | > 15800 | 631 | –
28 | Cc1occc1-c1nnc(SCC(=O)Nc2ccccc2F)n1Cc1ccco1 | > 15800 | 2000 | –
29 | Cc1occc1-c1nnc(SCC(=O)Nc2nccs2)n1Cc1ccco1 | > 15800 | 1000 | –
30 | Cc1occc1-c1nnc(SCC(N)=O)n1Cc1ccco1 | > 15800 | > 15800 | –
31 | Cc1occc1-c1nnc(SCC(=O)Nc2ccc(F)cc2)n1Cc1ccco1 | > 15800 | 158 | –
32 | Cc1occc1-c1nnc(SCC(=O)Nc2ccc(N(C)C)cc2)n1Cc1ccco1 | 794 | 158 | –
33 | Cc1cc(C)cc(N(C(=O)CSc2nnc(-c3ccoc3C)n2Cc2ccco2)c2cccnc2)c1 | > 15800 | 2000 | –
34 | Cc1occc1-c1nnc(SCC(=O)Nc2ccccc2)n1Cc1ccco1 | > 15800 | 1000 | –
